Data taken from BindingDB's records for doi:10.1016/j.bmc.2020.115818 (Taisho Pharmaceutical, 2020).

Assay: Inhibition of F protein in Respiratory syncytial virus A2 infected in HepG2 cells assessed as reduction in virus-induced cytopathic effect incubated for 4 days by XTT assay

Cc1ccc2c(c1)C(=O)N1CCCC[C@H]1c1cc3nc([C@H]4C[C@H](O)C4)cc(n3n1)N(C)CCNC(=O)CO2
EC50: 770 pM
